According to patent US10723741B1, “DNA polymerase IIIC inhibitors and use thereof” (Acurx Pharmaceuticals, LLC, priority 2018, dated 2020):
≈ marks a conversion by molar mass, not a printed value.

How the values were obtained:
Type in all cases: cell-based
[1] = test system: Staphylococcus aureus ATCC 29213 (MSSA); test: Broth microdilution MIC, S. aureus ATCC 29213 (MSSA); settings: broth microdilution, 37° C., 20 hours, read-out: MIC S. aureus ATCC 29213 (MSSA)
Summary of the method: (§1)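 Two-fold dilutions from 64 to 0.0625 μg/ml final, 1% DMSO, were inoculated at ~5.0×10^5 cfu/ml in the strain's test medium and kept 20 h at 37 °C in ambient atmosphere. Colonies were grown on MHA, with S. pneumoniae on blood agar under 5% CO2.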

[2] = test system: Streptococcus pneumoniae ATCC 49619; test: Broth microdilution MIC, S. pneumoniae ATCC 49619; settings: ATCC49619, broth microdilution, 37° C., 20 hours, read-out: MIC S. pneumoniae ATCC 49619
Summary of the method: as §1

[3] = test system: Enterococcus faecalis ATCC 29212; test: Broth microdilution MIC, E. faecalis ATCC 29212; settings: ATCC29212, broth microdilution, 37° C., 20 hours, read-out: MIC E. faecalis ATCC 29212
Summary of the method: as §1

[4] = test system: Escherichia coli ATCC 25922; test: Broth microdilution MIC, E. coli ATCC 25922 (MHIIB w & w/o 4 mM EDTA); settings: broth microdilution, 37° C., 20 hours; for MIC: Escherichia coli, ATCC25922, without EDTA, read-out: MIC E. coli ATCC 25922; for MIC E. coli ATCC 25922 + 4 mM EDTA: with 4 mM EDTA
Summary of the method: as §1

[5] = test system: Enterococcus faecium ATCC 700221 (VRE); test: Broth microdilution MIC, E. faecium ATCC 700221 (VRE); parameters: MIC E. faecium ATCC 700221 (VRE): unit: ug/mL; settings: broth microdilution, 37° C., 20 hours; for MIC: Enterococcus faecium, read-out: MIC E. faecium ATCC 700221 (VRE)
Summary of the method: as §1

[6] = test system: Bacillus subtilis ATCC 6633; test: Broth microdilution MIC, B. subtilis ATCC 6633; settings: ATCC6633, broth microdilution, 37° C., 20 hours, read-out: MIC B. subtilis ATCC 6633
Summary of the method: as §1

[7] = test system: Staphylococcus aureus NRS384 (MRSA); test: Broth microdilution MIC, S. aureus NRS384 (MRSA); parameters: MIC NRS 384 (MRSA): unit not given here; settings: broth microdilution, 37° C., 20 hours; for MIC: Staphylococcus aureus, read-out: MIC NRS 384 (MRSA)
Summary of the method: as §1

| MIC [1] [µg/mL] | MIC [2] [µg/mL] | MIC [3] [µg/mL] | MIC [4] [µg/mL] | MIC E. coli ATCC 25922 + 4 mM EDTA [4] [µg/mL] | MIC [5] [µg/mL] | MIC [6] [µg/mL] | MIC [7] [µg/mL] | MIC NRS 384 (MRSA) [7] | MIC E. faecium ATCC 700221 (VRE) [5] | SMILES |
| --- | --- | --- | --- | --- | --- | --- | --- | --- | --- | --- |
| 32 | 4 | 16 | > 64 | >64 | 16 | 4 | 32 |  |  | CN(C)C(CO)C(=O)N1CCC(n2ncc3nc(NCc4ccc(Cl)c(Cl)c4)[nH]c(=O)c32)CC1.Cl (stereo not drawn) [Compound 279, 5-((3,4-dichlorobenzyl)amino)-1-(1-(2-(dimethylamino)-3-hydroxypropanoyl)piperidin-4-yl)-1H-pyrazolo[4,3-d]pyrimidin-7(6H)-one hydrochloride] |
| 16 | 8 | 16 | > 64 | >64 | 8 | 16 | 16 |  |  | Cl.O=C(c1cccnc1)N1CCCC(Cn2ncc3nc(NCc4ccc(Cl)c(Cl)c4)[nH]c(=O)c32)C1 (stereo not drawn) [Compound 280, 5-((3,4-dichlorobenzyl)amino)-1-((1-nicotinoylpiperidin-3-yl)methyl)-1H-pyrazolo[4,3-d]pyrimidin-7(6H)-one hydrochloride] |
| 8 (≈ 18.4 µM) | 2 (≈ 4.59 µM) | 4 (≈ 9.19 µM) | > 64 | >64 | 2 (≈ 4.59 µM) | 2 (≈ 4.59 µM) |  | 4/8 |  | CC(=O)N1CCC(Cn2ncc3nc(NCc4ccc(Cl)c(Cl)c4)[nH]c(=O)c32)C1 (stereo not drawn) [Compound 281, 1-((1-Acetylpyrrolidin-3-yl)methyl)-5-((3,4-dichlorobenzyl)amino)-1H-pyrazolo[4,3-d]pyrimidin-7(6H)-one] |
| > 64 | > 64 | > 64 | > 64 | >64 | > 64 | > 64 | > 64 |  |  | Cl.O=c1[nH]c(NCc2ccc(Cl)c(Cl)c2)nc2cnn(CCOCc3nn[nH]n3)c12 [Compound 282, 1-(2-((2H-tetrazol-5-yl)methoxy)ethyl)-5-((3,4-dichlorobenzyl)amino)-1H-pyrazolo[4,3-d]pyrimidin-7(6H)-one hydrochloride] |
| > 64 | > 64 | > 64 | > 64 | >64 | > 64 | > 64 | > 64 |  |  | O=C(O)COCCn1ncc2nc(NCc3ccc(Cl)c(Cl)c3)[nH]c(=O)c21 [Compound 283, 2-[2-[5-[(3,4-dichlorophenyl)methylamino]-7-oxo-6H-pyrazolo[4,3-d]pyrimidin-1-yl]ethoxy]acetic acid] |
| 16 (≈ 38.9 µM) | 8 (≈ 19.5 µM) | 16 (≈ 38.9 µM) | > 64 | >64 | 8 (≈ 19.5 µM) | 8 (≈ 19.5 µM) | 64 (≈ 156 µM) |  |  | NC(=O)COCCn1ncc2nc(NCc3ccc(Cl)c(Cl)c3)[nH]c(=O)c21 [Compound 284, 2-[2-[5-[(3,4-dichlorophenyl)methylamino]-7-oxo-6H-pyrazolo[4,3-d]pyrimidin-1-yl]ethoxy]acetamide] |
| 4 (≈ 10.2 µM) | 4 (≈ 10.2 µM) | 4 (≈ 10.2 µM) | > 64 | >64 |  | 1 (≈ 2.54 µM) |  | 4/4 | 2/2 | N#CCOCCn1ncc2nc(NCc3ccc(Cl)c(Cl)c3)[nH]c(=O)c21 [Compound 285, 2-(2-(5-((3,4-dichlorobenzyl)amino)-7-oxo-6,7-dihydro-1H-pyrazolo[4,3-d]pyrimidin-1-yl)ethoxy)acetonitrile] |
| 8 (≈ 20 µM) | 4 (≈ 9.99 µM) | 4 (≈ 9.99 µM) | > 64 | >64 | 2 (≈ 5 µM) | 4 (≈ 9.99 µM) | 8 (≈ 20 µM) |  |  | [2H]C([2H])(O)COCCn1ncc2nc(NCc3ccc(Cl)c(Cl)c3)[nH]c(=O)c21 [Compound 286, 5-[(3,4-dichlorophenyl)methylamino]-1-[2-(2,2-dideuterio-2-hydroxyl-ethoxy)ethyl]-6H-pyrazolo[4,3-d]pyrimidin-7-one] |
| 4 (≈ 9.38 µM) | 16 (≈ 37.5 µM) | 8 (≈ 18.8 µM) | > 64 | >64 |  | 2 (≈ 4.69 µM) |  | 4/4 | 4/4 | COC(=O)COCCn1ncc2nc(NCc3ccc(Cl)c(Cl)c3)[nH]c(=O)c21 [Compound 287, methyl 2-(2-(5-((3,4-dichlorobenzyl)amino)-7-oxo-6,7-dihydro-1H-pyrazolo[4,3-d]pyrimidin-1-yl)ethoxy)acetate] |
| 32 (≈ 70.6 µM) | 16 (≈ 35.3 µM) | 32 (≈ 70.6 µM) | > 64 | >64 | 16 (≈ 35.3 µM) | 8 (≈ 17.6 µM) | 32 (≈ 70.6 µM) |  |  | O=c1[nH]c(NCc2ccc(Cl)c(Cl)c2)nc2cnn(CC(CO)N3CCOCC3)c12 (stereo not drawn) [Compound 288, 5-[(3,4-dichlorophenyl)methylamino]-1-(3-hydroxy-2-morpholino-propyl)-6H-pyrazolo[4,3-d]pyrimidin-7-one] |
| 32 (≈ 70.6 µM) | 8 (≈ 17.6 µM) | 16 (≈ 35.3 µM) | > 64 | >64 | 8 (≈ 17.6 µM) | 8 (≈ 17.6 µM) | 32 (≈ 70.6 µM) |  |  | O=c1[nH]c(NCc2ccc(Cl)c(Cl)c2)nc2cnn(CC(O)CN3CCOCC3)c12 (stereo not drawn) [Compound 289, 5-[(3,4-dichlorophenyl)methylamino]-1-(2-hydroxy-3-morpholino-propyl)-6H-pyrazolo[4,3-d]pyrimidin-7-one] |
| 32 (≈ 83.7 µM) | 16 (≈ 41.9 µM) | 16 (≈ 41.9 µM) | > 64 | >64 | 8 (≈ 20.9 µM) | 8 (≈ 20.9 µM) | 16 (≈ 41.9 µM) |  |  | O=C(CO)Cn1ncc2nc(NCc3ccc(Cl)c(Cl)c3)[nH]c(=O)c21 [Compound 290, 5-((3,4-dichlorobenzyl)amino)-1-(3-hydroxy-2-oxopropyl)-1H-pyrazolo[4,3-d]pyrimidin-7(6H)-one] |
| 16 (≈ 40 µM) | 8 (≈ 20 µM) | 16 (≈ 40 µM) | > 64 | >64 | 4 (≈ 9.99 µM) | 4 (≈ 9.99 µM) | 16 (≈ 40 µM) |  |  | [2H]C([2H])(Nc1nc2cnn(CCOCCO)c2c(=O)[nH]1)c1ccc(Cl)c(Cl)c1 [Compound 291, 5-[[dideuterio-(3,4-dichlorophenyl)methyl]amino]-1-[2-(2-hydroxyethoxy)ethyl]-6H-pyrazolo[4,3-d]pyrimidin-7-one] |
| 16 | 64 | 64 | > 64 | >64 | 64 | 16 | 16 |  |  | Cl.N=C(N)NCCn1ncc2nc(NCc3ccc(Cl)c(Cl)c3)[nH]c(=O)c21 [Compound 292, 1-(2-(5-((3,4-dichlorobenzyl)amino)-7-oxo-6,7-dihydro-1H-pyrazolo[4,3-d]pyrimidin-1-yl)ethyl)guanidine hydrochloride] |
| 16 | 16 | 64 | > 64 | 32 | > 64 | 8 | 16 |  |  | Cl.N=C(N)NCCOCCn1ncc2nc(NCc3ccc(Cl)c(Cl)c3)[nH]c(=O)c21 [Compound 293, 1-(2-(2-(5-((3,4-Dichlorobenzyl)amino)-7-oxo-6,7-dihydro-1H-pyrazolo[4,3-d]pyrimidin-1-yl)ethoxy)ethyl)guanidine hydrochloride] |
